The experiment deals with Lp-NOX. Briefly: NADH oxidation, absorbance at […] nm, Michaelis-Menten fit. It counts as biochemical, Lactiplantibacillus pentosus. The note with it: free enzyme; 0.2 mM NADH, 0.025-0.2 mM flavin, 25 mM phosphate pH 7, 30 °C.

In the case of `Cc1cc2nc3c(=O)[nH]c(=O)nc-3n(C[C@H](O)[C@H](O)[C@H](O)COP(=O)(O)O)c2cc1C` [FMN], the Michaelis-Menten constant (Km) came to 215 ± 100 µM. Turning to `Cc1cc2nc3c(=O)[nH]c(=O)nc-3n(C[C@H](O)[C@H](O)[C@H](O)COP(=O)(O)OP(=O)(O)OC[C@H]3O[C@@H](n4cnc5c(N)ncnc54)[C@H](O)[C@@H]3O)c2cc1C` [FAD], the Km was determined as 41 ± 20 µM.
